Converted amounts (≈) assume the structure as drawn. Read-outs that look alike come from different tables or passages of the source.
Legend:
[1] = tested on: Staphylococcus aureus strain which is resistant to rifampicin (Staph. aureus Tour); experiment: in vitro minimal inhibitory concentration against rifampicin-resistant Staphylococcus aureus strain; assay type: cell-based; settings: for MIC: Staphylococcus aureus, read-out: Minimal inhibitory concentration
Description: In particular, compounds illustrative of the invention at concentrations of about 10 to 20 μg/ml or less inhibit the growth of a Staph. aureus Tour strain resistant to rifampicin.
One of the most important characteristics of the new hydrazones is their activity against rifampicin-resistant Staphylococcus aureus strains. Rifampicin, that is 3-(4-methyl-1-piperazinyl)iminomethylrifamycin SV, disclosed in U.S. Pat. No. 3,342,810, is the most known and widely used rifamycin derivative in therapeutic practice.
The data of the new compounds are compared with those of representative hydrazones disclosed in U.S. Pat. No. 3,342,810.

[2] = biological target: T1, RNA-dependent DNA polymerase of murine sarcoma virus (Moloney murine leukemia virus, UniProt P03355); experiment: inhibition of RNA-dependent DNA polymerase of murine sarcoma virus (3H-dTTP incorporation); assay type: biochemical; settings: at a concentration of 2-100 μg/ml or less; 60 min
T1 construct: The virion polymerase was purified 20-40 fold; made in house; host or cells: virions from MSV (Moloney) transformed rat 78A1 cells and MSV (Harvey) transformed mouse MEH cells; disrupted virus or polymerase purified 20-40 fold
Description: The inhibiting activity of the inventive compounds has been tested on RNA-dependent DNA polymerase of murine sarcoma virus (endogenous) and RNA-dependent DNA polymerase activity of purified enzymes. The inhibition was tested according to the methods described by C. Gurgo et al., Nature, New Biology, 229, 111, 1971. The effect of different concentrations of drugs on polymerase activity was determined by following ^3 H-dTTP (tritiated thymine deoxyriboside triphosphate) incorporation into the insoluble fraction. A typical example of the experimental procedures is the following.
Virus was isolated and purified from murine sarcoma virus (Moloney isolate) transformed rat cells (78Al cells) and murine sarcoma virus (Harvey isolate) transformed mouse cells (MEH cells) as previously described (Green et al., Proc. Nat. Acad. Sci. USA 67, 385-393, 1970, Rokutanda et al., Nature, 227, 1026-1028, 1970). The virion polymerase was purified 20-40 fold by incubation of purified virus with 0.5% NP-40 (nonidet P-40) in 0.1 M NaCl, 0.01 M Tris buffer (pH 7.6), 0.001 M EDTA for 5 minutes at room temperature and zonal centrifugation in 15-30% sucrose gradients in 10 mM sodium phosphate buffer (pH 7.4), 2.5 mM MgCl2, 10 mM dithiothreitol, and 5% glycerol for 24 hours at 38,000 rpm in a Spinco SW41 rotor. The peak fractions of enzyme activity (13-17) of 22 fractions collected, were pooled and stored at -70° C. in 30% glycerol.
Enzyme incubation was performed for 1 hour at 37° C. in 100 μl of reaction mixture containing 40 mM Tris buffer (pH 8.0), 5 mM dithiothreitol, 30 mM NaCl, 2.5 mM MgCl2, 0.1 mM dATP, dGTP, dCTP, and 10 μCi of ^3 H-dTTP (12-18 Ci/mmole) as described by Green et al. in Proc. Nat. Acad. Sci. USA 67, 385-393, 1970. The reaction was terminated by the addition of 150 μl of 1N perchloric acid. Calf thymus DNA (100 μg) was added as carrier; the radioactive DNA product was processed as described in the two papers mentioned above. Endogenous RNA-dependent DNA-polymerase activity was measured after the addition of 0.01% NP-40 to purified virus at the time of assay. The DNA-polymerase activity of purified viral polymerase was measured with 2 μg of poly d (A-T) as template and no NP-40.
Rifamycin derivatives of this invention were dissolved in dimethylsulfoxide (DMSO) at a concentration of 5 mg/ml and stored at 4° C. Inhibition of the endogenous RNA-dependent DNA-polymerase activity was tested by adding 2 μl of derivative appropriately diluted in DMSO or 2 μl of DMSO (control) to the assay mixture prior to addition to disrupted virus which contained 15 to 30 μg of viral protein. Enzyme incubation was performed for 60 minutes at 37° C. Inhibition of purified enzyme was tested by pre-incubation of 2 μl of derivative or DMSO with 30 μl of enzyme (1 to 2 μg of protein) for 10 minutes at 37° C.; then 70 μl of substrate mixture were added and the mixture further incubated and processed as described above.

[3] = tested on: mouse embryo DNA-polymerase II (ME-DNA-P2); experiment: effect on mouse embryo DNA-polymerase II; assay type: biochemical; settings: activated Calf-Thymus DNA
From the text: (§1) Oligo dT.Poly rA. ME-DNA-P1 and ME-DNA-p2 : activated

[4] = biological target: T2, sarcoma virus DNA-polymerases (SSV-DNA-P) (Woolly monkey sarcoma virus, UniProt P03359); experiment: effect on activity of SSV-polymerase; assay type: biochemical
T2 construct: sarcoma virus DNA-polymerases (SSV-DNA-P)
From the text: Templates used in the Enzymatic Assays were the following: SSV-DNA-P: […]

[5] = tested on: mouse embryo DNA-polymerase I (ME-DNA-P1); experiment: effect on mouse embryo DNA-polymerase I; assay type: biochemical; settings: activated Calf-Thymus DNA
From the text: as §1

[6] = biological target: T3, mouse embryo RNA-polymerase I (ME-RNA-P1) (Mus musculus, UniProt O35134+P70700); experiment: effect on mouse embryo RNA-polymerase I; assay type: biochemical; settings: for remaining activity at 10 µg: read-out: % Control Activity of ME-RNA-P1 at 10μg; for remaining activity at 100 µg: read-out: % Control Activity of ME-RNA-P1 at 100μg
T3 construct: mouse embryo RNA-polymerase I (ME-RNA-P1); endogenous in cells; host or cells: mouse embryo cells
From the text: (§2) Calf-Thymus DNA. Me-RNA-P1 and ME-RNA-P2 : Single Stranded

[7] = biological target: T4, mouse embryo RNA-polymerase II (ME-RNA-P2) (Mus musculus, UniProt P08775+Q8CFI7); experiment: effect on mouse embryo RNA-polymerase II; assay type: biochemical; settings: for remaining activity at 10 µg: read-out: % Control Activity of ME-RNA-P2 at 10μg; for remaining activity at 100 µg: read-out: % Control Activity of ME-RNA-P2 at 100μg
T4 construct: mouse embryo RNA-polymerase II (ME-RNA-P2); endogenous in cells; host or cells: mouse embryo cells
From the text: as §2

[8] = tested on: normal polymerases; experiment: effect on normal polymerases, native template; assay type: biochemical; settings: about 5 μg/ml
Description: (§3) DNA polymerase assays were carried out in a final volume of 100 μl. The assay mixture contained Tris-HCl buffer, pH 8.3, 50 mM; MgAc, 6.0 mM; dithiothreitol, 8.0 mM; NaCl, 60 mM. Adjustment of pH was carried out after addition of inhibitors which were previously dissolved in dimethylsulfoxide (DMSO). The final concentration of DMSO was 0.5% and all control samples included this amount of DMSO. An enzyme concentration that catalyzes an incorporation of approximately 1.0 pmole/hr was used in the assay. The enzyme was in most cases preincubated for 5 minutes with the inhibitor. […]
(§4) In these cases, reactions were initiated by adding enzyme to the complete reaction mixture, which included the inhibitor. […] The products were collected on Millipore filter, washed extensively with 5% TCA and 1 ml. of DMSO-ethanol 0.1 M NaCl mixture (0.5:70:29.5), dried and counted in 2 ml. of BBS3 (Beckman) and 10 ml. of liquifluor (New England Nuclear) in a Packard liquid scintillation counter.

[9] = tested on: tumor virus polymerases; experiment: inhibition of tumor virus polymerases, native template; assay type: biochemical; settings: about 5 μg/ml
Description: as §3, §4

T2 sequence (P03359 642-1310): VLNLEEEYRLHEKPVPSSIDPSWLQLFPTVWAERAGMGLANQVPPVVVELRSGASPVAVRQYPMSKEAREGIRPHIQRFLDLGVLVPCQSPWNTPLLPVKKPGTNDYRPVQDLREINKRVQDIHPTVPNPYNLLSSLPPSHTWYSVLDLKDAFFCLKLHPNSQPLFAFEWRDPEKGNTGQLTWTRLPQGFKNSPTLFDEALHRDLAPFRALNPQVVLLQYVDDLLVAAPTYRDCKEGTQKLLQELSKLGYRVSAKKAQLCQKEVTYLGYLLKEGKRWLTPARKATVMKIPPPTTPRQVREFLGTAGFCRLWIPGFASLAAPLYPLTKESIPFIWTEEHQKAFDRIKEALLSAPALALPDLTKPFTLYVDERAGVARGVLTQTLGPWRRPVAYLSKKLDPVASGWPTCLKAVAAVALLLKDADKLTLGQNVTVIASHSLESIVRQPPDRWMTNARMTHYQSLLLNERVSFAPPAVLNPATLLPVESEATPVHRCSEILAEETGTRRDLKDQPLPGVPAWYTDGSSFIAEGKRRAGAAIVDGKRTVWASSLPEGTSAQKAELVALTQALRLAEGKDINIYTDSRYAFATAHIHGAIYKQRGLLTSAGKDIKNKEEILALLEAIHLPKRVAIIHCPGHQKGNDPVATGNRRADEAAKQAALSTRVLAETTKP

COC1C=COC2(C)Oc3c(C)c(O)c4c(O)c(c(C=NNC5CCCCCC5)c(O)c4c3C2=O)NC(=O)C(C)=CC=CC(C)C(O)C(C)C(O)C(C)C(OC(C)=O)C1C (centres unmarked) [Example 13]
MIC [1]: 10 µg/mL (≈ 12 µM) | incorporation of H3-dTTP relative to that found in the control tests [2]: less than 10%

COC1C=COC2(C)Oc3c(C)c(O)c4c(O)c(c(C=NN5CCN(C)CC5)c(O)c4c3C2=O)NC(=O)C(C)=CC=CC(C)C(O)C(C)C(O)C(C)C(OC(C)=O)C1C (centres unmarked) [Rifampicin, 3-(4-methyl-1-piperazinyl)iminomethylrifamycin SV]
MIC [1]: > 100 µg/mL | Minimal inhibitory concentration ([1]; in vitro, Staphylococcus aureus strain resistant to rifampicin): > 100 µg/mL | % Control Activity of ME-DNA-P2 at 10μg [3]: 96% | % Control Activity of ME-DNA-P2 at 100μg [3]: 16% | % Control Activity of SSV-DNA-P at 5μg [4]: 94% | % Control Activity of SSV-DNA-P at 10μg [4]: 97% | % Control Activity of SSV-DNA-P at 100μg [4]: 96% | % Control Activity of ME-DNA-P1 at 10μg [5]: 99% | % Control Activity of ME-DNA-P1 at 100μg [5]: 56% | remaining activity at 10 µg [6]: 77.7% | remaining activity at 100 µg [6]: 86% | remaining activity at 10 µg [7]: 81% | remaining activity at 100 µg [7]: 99%

COC1C=COC2(C)Oc3c(C)c(O)c4c(O)c(c(C=NN(c5ccccc5)c5ccccc5)c(O)c4c3C2=O)NC(=O)C(C)=CC=CC(C)C(O)C(C)C(O)C(C)C(OC(C)=O)C1C (centres unmarked) [Example 11]
MIC [1]: 2 µg/mL (≈ 2.24 µM) | incorporation of H3-dTTP relative to that found in the control tests [2]: less than 10%

COC1C=COC2(C)Oc3c(C)c(O)c4c(O)c(c(C=NNc5ccc([N+](=O)[O-])cc5[N+](=O)[O-])c(O)c4c3C2=O)NC(=O)C(C)=CC=CC(C)C(O)C(C)C(O)C(C)C(OC(C)=O)C1C (centres unmarked) [Example 12]
MIC [1]: 10 µg/mL (≈ 11 µM) | % Control Activity of ME-DNA-P2 at 5μg ([3]; 5μg): 72% | % Control Activity of ME-DNA-P2 at 10μg [3]: 83% | % Control Activity of ME-DNA-P2 at 100μg [3]: 46% | % Control Activity of SSV-DNA-P at 5μg ([4]; 5μg, template Oligo dT.Poly rA): 44% | % Control Activity of SSV-DNA-P at 10μg ([4]; 10μg, template Oligo dT.Poly rA): 34% | % Control Activity of SSV-DNA-P at 100μg ([4]; 100μg, template Oligo dT.Poly rA): 1% | activity on normal polymerases [8]: practically inactive | inhibition of tumor virus polymerases [9]: 44% | % Control Activity of ME-DNA-P1 at 5μg ([5]; 5μg): 102% | % Control Activity of ME-DNA-P1 at 10μg [5]: 83% | % Control Activity of ME-DNA-P1 at 100μg [5]: 11% | remaining activity at 10 µg [6]: 115% | remaining activity at 100 µg [6]: 100% | remaining activity at 10 µg [7]: 92% | remaining activity at 100 µg [7]: 72% | incorporation of H3-dTTP relative to that found in the control tests [2]: less than 10%

COC1C=COC2(C)Oc3c(C)c(O)c4c(O)c(c(C=NNC5CCCCCCC5)c(O)c4c3C2=O)NC(=O)C(C)=CC=CC(C)C(O)C(C)C(O)C(C)C(OC(C)=O)C1C (centres unmarked) [Example 14]
MIC [1]: 5 µg/mL (≈ 5.88 µM) | incorporation of H3-dTTP relative to that found in the control tests [2]: less than 10%

COC1C=COC2(C)Oc3c(C)c(O)c4c(O)c(c(C=NN(Cc5ccccc5)c5ccccc5)c(O)c4c3C2=O)NC(=O)C(C)=CC=CC(C)C(O)C(C)C(O)C(C)C(OC(C)=O)C1C (centres unmarked) [Example 15]
MIC [1]: 2 µg/mL (≈ 2.21 µM) | incorporation of H3-dTTP relative to that found in the control tests [2]: less than 10%
